# Source: ChEMBL document CHEMBL4507329, “Data for DCP probe BTZO-1” (2021)
# What was measured:
# [1] = molecular target: AP2-associated protein kinase 1 (Homo sapiens) (UniProt Q2M2I8); conditions: Compound concentration 1000.0 nM
# [2] = test system: Tyrosine-protein kinase ABL1 (Homo sapiens), P00519 [F317L]; conditions: Compound concentration 1000.0 nM
# [3] = test system: Tyrosine-protein kinase ABL1 (Homo sapiens), P00519 [M351T]; conditions: Compound concentration 1000.0 nM
# [4] = molecular target: Tyrosine-protein kinase ABL1 (Homo sapiens) (UniProt P00519); conditions: Compound concentration 1000.0 nM
# [5] = molecular target: Activin receptor type-2A (Homo sapiens) (UniProt P27037); conditions: Compound concentration 1000.0 nM
# [6] = molecular target: Atypical kinase COQ8A, mitochondrial (Homo sapiens) (UniProt Q8NI60); conditions: Compound concentration 1000.0 nM
# [7] = molecular target: RAC-alpha serine/threonine-protein kinase (Homo sapiens) (UniProt P31749); conditions: Compound concentration 1000.0 nM
# Chain of RAC-alpha serine/threonine-protein kinase (Homo sapiens) (P31749 whole entry): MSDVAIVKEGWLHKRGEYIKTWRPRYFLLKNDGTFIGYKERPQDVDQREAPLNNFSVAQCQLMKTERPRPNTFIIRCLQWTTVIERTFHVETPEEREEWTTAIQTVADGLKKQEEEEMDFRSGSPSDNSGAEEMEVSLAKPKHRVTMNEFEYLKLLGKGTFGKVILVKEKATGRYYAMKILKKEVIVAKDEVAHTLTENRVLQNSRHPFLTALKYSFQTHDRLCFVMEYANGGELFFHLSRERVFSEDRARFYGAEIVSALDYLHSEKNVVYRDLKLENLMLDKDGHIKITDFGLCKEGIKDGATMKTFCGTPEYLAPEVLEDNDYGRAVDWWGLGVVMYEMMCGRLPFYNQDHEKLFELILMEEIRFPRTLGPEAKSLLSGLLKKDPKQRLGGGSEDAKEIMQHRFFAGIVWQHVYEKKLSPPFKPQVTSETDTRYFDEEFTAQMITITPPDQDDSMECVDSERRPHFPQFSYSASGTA
# [8] = test system: ALK tyrosine kinase receptor (Homo sapiens), Q9UM73 [L1196M]; conditions: Compound concentration 1000.0 nM
# [9] = molecular target: Calcium/calmodulin-dependent protein kinase type II subunit delta (Homo sapiens) (UniProt Q13557); conditions: Compound concentration 1000.0 nM
# [10] = molecular target: Tyrosine-protein kinase CSK (Homo sapiens) (UniProt P41240); conditions: Compound concentration 1000.0 nM
# [11] = molecular target: Casein kinase I isoform alpha-like (Homo sapiens) (UniProt Q8N752); conditions: Compound concentration 1000.0 nM
# Chain of Casein kinase I isoform alpha-like (Homo sapiens) (Q8N752 whole entry, canonical isoform): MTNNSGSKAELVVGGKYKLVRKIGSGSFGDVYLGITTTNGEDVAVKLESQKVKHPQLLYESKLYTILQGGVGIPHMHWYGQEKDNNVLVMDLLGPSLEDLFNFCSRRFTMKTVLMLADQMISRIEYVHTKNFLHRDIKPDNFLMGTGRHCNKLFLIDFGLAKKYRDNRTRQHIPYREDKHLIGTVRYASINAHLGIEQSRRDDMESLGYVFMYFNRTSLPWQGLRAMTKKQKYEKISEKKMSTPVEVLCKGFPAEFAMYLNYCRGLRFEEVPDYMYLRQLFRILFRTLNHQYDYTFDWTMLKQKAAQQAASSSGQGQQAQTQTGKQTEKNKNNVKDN
# [12] = molecular target: Casein kinase II subunit alpha (Homo sapiens) (UniProt P68400); conditions: Compound concentration 1000.0 nM
# [13] = molecular target: Death-associated protein kinase 1 (Homo sapiens) (UniProt P53355); conditions: Compound concentration 1000.0 nM
# [14] = molecular target: Serine/threonine-protein kinase DCLK1 (Homo sapiens) (UniProt O15075); conditions: Compound concentration 1000.0 nM
# [15] = molecular target: Serine/threonine-protein kinase DCLK3 (Homo sapiens) (UniProt Q9C098); conditions: Compound concentration 1000.0 nM
# [16] = test system: Epidermal growth factor receptor (Homo sapiens), P00533 [L858R,T790M]; conditions: Compound concentration 1000.0 nM
# [17] = test system: Epidermal growth factor receptor (Homo sapiens), P00533 [L861Q]; conditions: Compound concentration 1000.0 nM
# [18] = molecular target: Ephrin type-A receptor 8 (Homo sapiens) (UniProt P29322); conditions: Compound concentration 1000.0 nM
# [19] = molecular target: Mitogen-activated protein kinase 7 (Homo sapiens) (UniProt Q13164); conditions: Compound concentration 1000.0 nM
# Chain of Mitogen-activated protein kinase 7 (Homo sapiens) (Q13164 2-816 limits assumed): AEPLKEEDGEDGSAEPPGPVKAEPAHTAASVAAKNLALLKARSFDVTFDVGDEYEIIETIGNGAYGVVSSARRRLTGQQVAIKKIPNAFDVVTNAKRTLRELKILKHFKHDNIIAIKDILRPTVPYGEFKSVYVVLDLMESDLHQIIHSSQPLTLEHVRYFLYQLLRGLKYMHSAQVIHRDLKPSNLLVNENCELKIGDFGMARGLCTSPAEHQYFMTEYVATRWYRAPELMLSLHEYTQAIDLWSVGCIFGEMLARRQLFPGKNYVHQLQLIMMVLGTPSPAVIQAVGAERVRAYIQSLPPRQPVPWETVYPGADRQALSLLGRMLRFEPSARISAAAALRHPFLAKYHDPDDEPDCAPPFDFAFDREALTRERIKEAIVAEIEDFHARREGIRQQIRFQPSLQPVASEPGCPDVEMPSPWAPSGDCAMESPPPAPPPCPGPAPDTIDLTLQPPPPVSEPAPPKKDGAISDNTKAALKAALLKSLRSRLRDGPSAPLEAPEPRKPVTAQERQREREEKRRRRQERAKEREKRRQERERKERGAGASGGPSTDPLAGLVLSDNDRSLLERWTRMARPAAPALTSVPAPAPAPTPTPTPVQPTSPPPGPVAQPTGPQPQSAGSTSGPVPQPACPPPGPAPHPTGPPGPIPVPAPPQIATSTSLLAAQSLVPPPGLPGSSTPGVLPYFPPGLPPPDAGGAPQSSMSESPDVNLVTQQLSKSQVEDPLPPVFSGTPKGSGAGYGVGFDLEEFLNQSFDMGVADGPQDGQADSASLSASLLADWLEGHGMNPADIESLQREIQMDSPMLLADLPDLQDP
# [20] = test system: Receptor-type tyrosine-protein kinase FLT3 (Homo sapiens), P36888 [D835V]; conditions: Compound concentration 1000.0 nM
# [21] = test system: eIF-2-alpha kinase GCN2 (Homo sapiens), Q9P2K8 [S808G]; conditions: Compound concentration 1000.0 nM
# [22] = molecular target: Tyrosine-protein kinase HCK (Homo sapiens) (UniProt P08631); conditions: Compound concentration 1000.0 nM
# [23] = molecular target: Interleukin-1 receptor-associated kinase 1 (Homo sapiens) (UniProt P51617); conditions: Compound concentration 1000.0 nM
# [24] = molecular target: Mitogen-activated protein kinase 10 (Homo sapiens) (UniProt P53779); conditions: Compound concentration 1000.0 nM
# [25] = molecular target: LIM domain kinase 2 (Homo sapiens) (UniProt P53671); conditions: Compound concentration 1000.0 nM
# [26] = molecular target: Serine/threonine-protein kinase 10 (Homo sapiens) (UniProt O94804); conditions: Compound concentration 1000.0 nM
# [27] = molecular target: Mitogen-activated protein kinase kinase kinase 4 (Homo sapiens) (UniProt Q9Y6R4); conditions: Compound concentration 1000.0 nM
# Chain of Mitogen-activated protein kinase kinase kinase 4 (Homo sapiens) (Q9Y6R4 whole entry): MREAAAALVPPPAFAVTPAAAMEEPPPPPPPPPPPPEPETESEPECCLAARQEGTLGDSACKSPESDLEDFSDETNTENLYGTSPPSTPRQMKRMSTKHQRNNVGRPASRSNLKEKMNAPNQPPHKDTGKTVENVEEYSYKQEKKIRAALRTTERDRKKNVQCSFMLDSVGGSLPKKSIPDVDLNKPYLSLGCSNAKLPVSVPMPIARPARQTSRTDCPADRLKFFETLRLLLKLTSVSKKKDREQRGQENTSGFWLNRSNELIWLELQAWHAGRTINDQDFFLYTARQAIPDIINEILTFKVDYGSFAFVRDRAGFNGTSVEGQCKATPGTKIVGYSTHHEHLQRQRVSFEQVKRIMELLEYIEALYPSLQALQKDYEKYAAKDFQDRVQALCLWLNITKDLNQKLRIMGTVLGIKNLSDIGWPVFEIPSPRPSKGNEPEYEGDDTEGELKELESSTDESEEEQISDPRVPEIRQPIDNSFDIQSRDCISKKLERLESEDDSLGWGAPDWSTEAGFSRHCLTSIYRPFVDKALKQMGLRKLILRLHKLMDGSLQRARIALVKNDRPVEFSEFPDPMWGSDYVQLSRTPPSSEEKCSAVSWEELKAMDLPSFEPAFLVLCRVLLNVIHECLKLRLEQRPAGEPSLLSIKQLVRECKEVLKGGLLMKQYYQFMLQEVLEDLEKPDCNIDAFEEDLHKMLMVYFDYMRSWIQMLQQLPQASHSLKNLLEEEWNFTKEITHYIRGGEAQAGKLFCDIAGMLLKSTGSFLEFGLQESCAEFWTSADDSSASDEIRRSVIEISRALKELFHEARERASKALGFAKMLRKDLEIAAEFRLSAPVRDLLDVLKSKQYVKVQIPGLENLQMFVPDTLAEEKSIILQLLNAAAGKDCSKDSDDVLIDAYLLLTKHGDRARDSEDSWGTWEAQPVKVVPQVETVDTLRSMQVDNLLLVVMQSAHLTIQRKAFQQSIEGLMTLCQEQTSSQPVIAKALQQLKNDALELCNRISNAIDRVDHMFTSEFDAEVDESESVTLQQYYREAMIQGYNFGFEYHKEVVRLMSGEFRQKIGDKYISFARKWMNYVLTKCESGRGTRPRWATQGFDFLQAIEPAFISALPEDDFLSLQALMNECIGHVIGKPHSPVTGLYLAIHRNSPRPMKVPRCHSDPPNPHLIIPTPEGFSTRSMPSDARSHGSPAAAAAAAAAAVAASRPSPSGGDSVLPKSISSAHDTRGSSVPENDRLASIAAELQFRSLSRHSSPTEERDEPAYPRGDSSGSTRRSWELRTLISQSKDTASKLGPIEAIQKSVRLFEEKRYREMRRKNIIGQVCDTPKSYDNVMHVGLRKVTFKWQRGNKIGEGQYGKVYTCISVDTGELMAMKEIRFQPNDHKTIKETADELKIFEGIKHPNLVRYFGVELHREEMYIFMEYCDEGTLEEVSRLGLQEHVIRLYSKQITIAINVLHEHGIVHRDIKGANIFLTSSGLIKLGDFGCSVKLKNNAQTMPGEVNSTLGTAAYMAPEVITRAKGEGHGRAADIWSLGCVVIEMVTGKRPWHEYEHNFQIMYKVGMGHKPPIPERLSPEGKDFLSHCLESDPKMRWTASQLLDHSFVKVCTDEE
# [28] = molecular target: MAP kinase-activated protein kinase 2 (Homo sapiens) (UniProt P49137); conditions: Compound concentration 1000.0 nM
# [29] = molecular target: Serine/threonine-protein kinase MRCK beta (Homo sapiens) (UniProt Q9Y5S2); conditions: Compound concentration 1000.0 nM
# [30] = molecular target: Serine/threonine-protein kinase PAK 5 (Homo sapiens) (UniProt Q9P286); conditions: Compound concentration 1000.0 nM
# [31] = molecular target: Cyclin-dependent kinase 18 (Homo sapiens) (UniProt Q07002); conditions: Compound concentration 1000.0 nM
# [32] = test system: Phosphatidylinositol 4,5-bisphosphate 3-kinase catalytic subunit alpha isoform (Homo sapiens), P42336 [E545K]; conditions: Compound concentration 1000.0 nM
# [33] = molecular target: Phosphatidylinositol 4-kinase beta (Homo sapiens) (UniProt Q9UBF8); conditions: Compound concentration 1000.0 nM
# [34] = molecular target: Serine/threonine-protein kinase pim-2 (Homo sapiens) (UniProt Q9P1W9); conditions: Compound concentration 1000.0 nM
# [35] = molecular target: cGMP-dependent protein kinase 1 (Homo sapiens) (UniProt Q13976); conditions: Compound concentration 1000.0 nM
# [36] = molecular target: Receptor-interacting serine/threonine-protein kinase 4 (Homo sapiens) (UniProt P57078); conditions: Compound concentration 1000.0 nM
# Chain of Receptor-interacting serine/threonine-protein kinase 4 (Homo sapiens) (P57078 whole entry): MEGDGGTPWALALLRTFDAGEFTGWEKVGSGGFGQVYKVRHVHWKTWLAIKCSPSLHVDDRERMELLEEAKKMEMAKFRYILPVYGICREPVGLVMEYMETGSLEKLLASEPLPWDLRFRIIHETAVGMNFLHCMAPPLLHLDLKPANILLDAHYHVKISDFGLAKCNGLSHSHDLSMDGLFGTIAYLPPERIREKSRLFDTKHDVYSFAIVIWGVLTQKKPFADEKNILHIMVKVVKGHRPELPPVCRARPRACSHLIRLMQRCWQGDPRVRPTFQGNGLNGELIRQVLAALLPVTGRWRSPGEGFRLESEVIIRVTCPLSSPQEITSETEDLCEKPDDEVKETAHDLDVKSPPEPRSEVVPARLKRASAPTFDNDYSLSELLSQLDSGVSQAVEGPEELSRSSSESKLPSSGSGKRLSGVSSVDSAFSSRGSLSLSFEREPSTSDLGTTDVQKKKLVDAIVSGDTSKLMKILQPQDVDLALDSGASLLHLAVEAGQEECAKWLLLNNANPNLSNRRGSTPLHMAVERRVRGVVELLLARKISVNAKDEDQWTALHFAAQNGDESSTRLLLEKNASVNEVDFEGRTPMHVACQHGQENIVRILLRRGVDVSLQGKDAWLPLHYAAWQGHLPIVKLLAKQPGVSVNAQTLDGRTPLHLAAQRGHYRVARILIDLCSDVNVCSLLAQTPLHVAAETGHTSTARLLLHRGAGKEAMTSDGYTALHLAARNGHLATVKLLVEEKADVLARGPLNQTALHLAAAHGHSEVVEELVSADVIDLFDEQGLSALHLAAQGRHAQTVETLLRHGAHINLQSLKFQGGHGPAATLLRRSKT
# [37] = molecular target: Ribosomal protein S6 kinase alpha-4 (Homo sapiens) (UniProt O75676); conditions: Compound concentration 1000.0 nM
# [38] = molecular target: Ribosomal protein S6 kinase alpha-3 (Homo sapiens) (UniProt P51812); conditions: Compound concentration 1000.0 nM
# [39] = molecular target: Serine/threonine-protein kinase SIK1 (Homo sapiens) (UniProt P57059); conditions: Compound concentration 1000.0 nM
# Chain of Serine/threonine-protein kinase SIK1 (Homo sapiens) (P57059 whole entry): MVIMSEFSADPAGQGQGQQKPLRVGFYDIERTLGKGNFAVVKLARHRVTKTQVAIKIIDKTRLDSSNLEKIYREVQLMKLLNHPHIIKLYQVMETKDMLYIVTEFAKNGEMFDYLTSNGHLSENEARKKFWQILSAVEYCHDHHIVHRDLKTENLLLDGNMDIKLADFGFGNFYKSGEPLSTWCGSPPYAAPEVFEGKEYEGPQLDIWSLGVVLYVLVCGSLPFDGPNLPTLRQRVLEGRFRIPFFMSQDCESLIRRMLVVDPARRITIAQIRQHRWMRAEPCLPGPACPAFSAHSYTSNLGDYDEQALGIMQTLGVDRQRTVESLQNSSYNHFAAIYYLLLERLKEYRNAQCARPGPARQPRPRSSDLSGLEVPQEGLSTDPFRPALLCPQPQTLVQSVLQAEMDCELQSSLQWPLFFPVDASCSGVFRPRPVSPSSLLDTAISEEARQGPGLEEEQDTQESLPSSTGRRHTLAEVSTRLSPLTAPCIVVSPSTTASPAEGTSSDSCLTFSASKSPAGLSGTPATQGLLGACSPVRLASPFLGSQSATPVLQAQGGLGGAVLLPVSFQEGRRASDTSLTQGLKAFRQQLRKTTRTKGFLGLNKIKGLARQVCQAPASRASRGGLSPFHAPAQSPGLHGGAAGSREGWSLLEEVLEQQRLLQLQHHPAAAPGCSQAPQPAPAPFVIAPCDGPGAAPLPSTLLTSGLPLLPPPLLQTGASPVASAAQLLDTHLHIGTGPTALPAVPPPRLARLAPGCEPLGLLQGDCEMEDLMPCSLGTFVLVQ
# [40] = molecular target: STE20/SPS1-related proline-alanine-rich protein kinase (Homo sapiens) (UniProt Q9UEW8); conditions: Compound concentration 1000.0 nM
# [41] = molecular target: Serine/threonine-protein kinase TBK1 (Homo sapiens) (UniProt Q9UHD2); conditions: Compound concentration 1000.0 nM
# [42] = molecular target: Dual specificity testis-specific protein kinase 1 (Homo sapiens) (UniProt Q15569); conditions: Compound concentration 1000.0 nM
# [43] = molecular target: TGF-beta receptor type-1 (Homo sapiens) (UniProt P36897); conditions: Compound concentration 1000.0 nM
# [44] = molecular target: Serine/threonine-protein kinase ULK1 (Homo sapiens) (UniProt O75385); conditions: Compound concentration 1000.0 nM
# [45] = molecular target: D(2) dopamine receptor (Homo sapiens) (UniProt P14416); conditions: Compound concentration 10.0 uM
smiles,measurement,setting,value
O=c1nc(-c2ccccn2)sc2ccccc12 [BTZO-1],residual activity,[1],100%
same,residual activity,[2],100%
same,residual activity,[3],100%
same,residual activity,[4],89%
same,residual activity,[5],91%
same,residual activity,[6],88%
same,residual activity,[7],100%
same,residual activity,[8],93%
same,residual activity,[9],90%
same,residual activity,[10],100%
same,residual activity,[11],100%
same,residual activity,[12],68%
same,residual activity,[13],100%
same,residual activity,[14],90%
same,residual activity,[15],97%
same,residual activity,[16],100%
same,residual activity,[17],68%
same,residual activity,[18],78%
same,residual activity,[19],100%
same,residual activity,[20],100%
same,residual activity,[21],47%
same,residual activity,[22],94%
same,residual activity,[23],100%
same,residual activity,[24],100%
same,residual activity,[25],100%
same,residual activity,[26],99%
same,residual activity,[27],92%
same,residual activity,[28],100%
same,residual activity,[29],100%
same,residual activity,[30],87%
same,residual activity,[31],94%
same,residual activity,[32],65%
same,residual activity,[33],71%
same,residual activity,[34],97%
same,residual activity,[35],100%
same,residual activity,[36],84%
same,residual activity,[37],80%
same,residual activity,[38],71%
same,residual activity,[39],95%
same,residual activity,[40],100%
same,residual activity,[41],91%
same,residual activity,[42],84%
same,residual activity,[43],97%
same,residual activity,[44],100%
same,inhibition,[45],22.9%
O=C1NC(c2ccccn2)Sc2ccccc21 (stereo not given) [BTZO-4],residual activity,[1],100%
same,residual activity,[2],100%
same,residual activity,[3],100%
same,residual activity,[4],72%
same,residual activity,[5],100%
same,residual activity,[6],98%
same,residual activity,[7],89%
same,residual activity,[8],97%
same,residual activity,[9],75%
same,residual activity,[10],100%
same,residual activity,[11],89%
same,residual activity,[12],61%
same,residual activity,[13],100%
same,residual activity,[14],77%
same,residual activity,[15],69%
same,residual activity,[16],100%
same,residual activity,[17],77%
same,residual activity,[18],63%
same,residual activity,[19],96%
same,residual activity,[20],100%
same,residual activity,[21],42%
same,residual activity,[22],90%
same,residual activity,[23],96%
same,residual activity,[24],100%
same,residual activity,[25],92%
same,residual activity,[26],100%
same,residual activity,[27],100%
same,residual activity,[28],100%
same,residual activity,[29],100%
same,residual activity,[30],94%
same,residual activity,[31],93%
same,residual activity,[32],73%
same,residual activity,[33],79%
same,residual activity,[34],88%
same,residual activity,[35],100%
same,residual activity,[36],72%
same,residual activity,[37],74%
same,residual activity,[38],72%
same,residual activity,[39],88%
same,residual activity,[40],89%
same,residual activity,[41],87%
same,residual activity,[42],100%
same,residual activity,[43],100%
same,residual activity,[44],100%
same,inhibition,[45],-3.91%
